Assay results as given in patent US20220289657A1, “COMPOSITION FOR PREVENTING OR TREATING BACTERIAL INFECTIOUS DISEASE COMPRISING 4-GINGEROL DERIVATIVE COMPOUND AS ACTIVE INGREDIENT” (KOREA UNIVERSITY RESEARCH AND BUSINESS FOUNDATION, SEJONG …, priority 2019, published 2022).

What was measured:
[1] = target: T1, LasR (Pseudomonas aeruginosa, UniProt P25084); details: previous studies; cited from earlier work
T1 construct: expressed in transfected cells; host or cells: E. coli DH5a co-transformed with pJN105L and pSC11 (lasI::lacZ)

[2] = system: Pseudomonas aeruginosa; experiment: Bacterial growth under static condition (OD 595 nm of suspended culture); assay type: cell-based; details: for activity at 10 µM / activity at 100 µM: Pseudomonas aeruginosa, 24 h; for activity at 10 µM: read-out: Relative biological activity (%) Bacterial growth 10; for activity at 100 µM: read-out: Relative biological activity (%) Bacterial growth 100
Experimental: Pseudomonas aeruginosa (P. aeruginosa) (OD 595 nm=1.0) was cultured overnight, and diluted in an AB medium (1:20; 300 mM NaCl, 50 mM MgSO4, 0.2% vitamin-free casamino acids, 10 mM potassium phosphate, 1 mM L-arginine, and 1% glucose, pH 7.5) together with a positive control or compound (0100 μM) in a borosilicate bottle. The resulting mixture was incubated without shaking at 37° C. for 24 hours, and to measure growth inhibition activity. OD 595 nm of the suspended culture was measured using a multimode plate reader. Biofilm cells attached to the bottle were washed twice with phosphate-buffered saline (PBS; 137 mM NaCl, 2.7 mM KCl, 10 mM Na2HPO4, and 2 mM KH2PO4, pH 7.2). Afterward, the remaining biofilm cells were stained with 0.1% crystal violet for 10 minutes, and to remove the unbound crystal violet, washed with deionized water. The crystal violet […] to the biofilm cells was eluted with 100% ethanol, and the OD of the eluted ethanol sample was measured at 545 nm using a multimode plate reader.

[3] = system: rhlA; experiment: RT-qPCR analysis of rhlA expression in biofilm cells; assay type: cell-based, Pseudomonas aeruginosa; details: 10 μM, FIG. 9B
Experimental: P. aeruginosa (OD 595 nm=1.0) overnight cultured with a positive control or compound (0-10 μM) was diluted (1:20) in an AB medium in a borosilicate bottle. Afterward, after culture for 24 hours at 37° C., biofilm cells were collected for RNA extraction. Total RNA was extracted using a TRI reagent (Molecular Research Center, OH, USA) according to the manufacturer's instruction. To quantify and compare QS-related gene expression levels, RT-qPCR was performed. For RT-qPCR, a SYBR Premix Ex Taq™ (Takara, Shiga, Japan), a CFX-96 real-time system (Bio-Rad, Hercules, Calif. USA), and a QS-related gene primer set were used. The thermal profile of the RT-qPCR is as follows: 40 cycles of initial denaturation for 10 seconds at 95° C., denaturation for 10 seconds at 95° C., annealing for 10 seconds at 60° C., and extension for 34 seconds at 63° C. A fluorescent signal intensity was collected at the end of the elongation step.

[4] = system: Pseudomonas aeruginosa; experiment: Dynamic biofilm formation assay (drip-flow reactor, CLSM); assay type: cell-based; details: 48 hours, 10 μM, smaller volume and thickness than control
Experimental: Glass slides were placed in a drip-flow reactor, and an AB medium containing 5% P. aeruginosa (OD 595 nm=1.0) was added along with a positive control or compound (0 to 10 μM) and the reactor was continuously operated using peristaltic pumps (Masterflex C/L tubing pumps, Cole-Parmer, Ill., USA) at 0.3 ml/min. After the above-described process was carried out at 37° C. for 48 hours, unattached biofilm cells were removed with PBS. The remaining biofilm cells were stained with DAPI (Sigma-Aldrich) for 10 minutes, and observed by confocal laser scanning microscopy (CLSM; Carl Zeiss LSM700, Jena, Germany). The CLSM image of the biofilm cells was obtained with a 20× objective lens (W NAchroplanX20/0.5W (DIC) M27) under blue fluorescence light (excitation wavelength: 350 nm, emission wavelength: 470 nm) using a Z-stack mode of the Zen 2011 program. The volume and thickness of the biofilm were measured using Comstat2 of the ImageJ program based on a CLSM image.

[5] = system: rhlR variant of P. aeruginosa; experiment: Pyocyanin production assay, rhlR variant; assay type: cell-based, Pseudomonas aeruginosa; details: 10 μM, FIG. 9C
Experimental: P. aeruginosa cultured overnight with a positive control or compound (0-10 μM) was inoculated in an AB medium, incubated for 24 hours at 37° C., and centrifuged for 10 minutes at 10,000 rpm. To extract pyocyanin, the supernatant was reacted with 50% trifluoroacetic acid (TFA, Sigma-Aldrich) for 1 hour at 37° C. The reacted supernatant was centrifuged for 10 minutes at 10,000 rpm, and filtered through a 0.22-μm filter. […] Specific HPLC conditions are as follows: mobile phase deionized water; TFA (99:1); injection volume:10 μL; temperature: 25° C.; and flow rate: 0.5 mL/min. The retention time of pyocyanin (Sigma-Aldrich) is 20 minutes. To measure a pyocyanin amount, when the retention time was 20 minutes, the height of an analysis peak was detected.

[6] = system: Pseudomonas aeruginosa; experiment: EPS analysis of drip-flow biofilm cells (carbohydrates, proteins); assay type: cell-based; details: 10 μM
Experimental: EPS analysis was carried out with the biofilm cells attached to the slides after the operation of the drip-flow reactor. The biofilm cells that were centrifuged were re-suspended with 0.01M KCl, and for the analysis of carbohydrates and proteins, the cells were disrupted with a sonicator (VCX 750, SONICS, Newtown, Conn., USA) for 5 seconds at a level of 3.5 Hz, followed by stopping for 5 seconds, which was repeated 4 times. A supernatant of the cell-disrupted suspension was filtered through a 0.22 μm membrane filter (Millex filter, Carl Roth, Karlsruhe, Germany). For protein analysis, a mixture containing 40 μL of the filtrate and 200 μL of a Lowry reagent (L3540, Sigma-Aldrich) was incubated at room temperature for 10 minutes. Afterward, 20 μL of a Folin-Ciocalteu reagent (Sigma-Aldrich) was added and incubated at room temperature for 30 minutes, followed by measuring OD at 750 nm using a multimode plate reader. A protein amount was quantified at OD 750 nm or OD 595 nm. For carbohydrate analysis, a mixture containing 50 μL of the filtrate and 150 μL of 99.9% sulfuric acid was incubated at room temperature for 30 minutes. Afterward, 5% phenol was added, followed by incubation at 90° C. for 5 minutes. OD was measured at 490 nm using a multimode plate reader. The amount of carbohydrates was quantified at OD 490 nm or OD 595 nm.

[7] = system: Pseudomonas aeruginosa-injected T. molitor larvae; experiment: Mortality of Pseudomonas aeruginosa-injected T. molitor larvae; assay type: in vivo, Tenebrio molitor; details: 10 μM; 20 days of incubation; FIG. 10
Experimental: The mortality of Tenebrio molitor (T. molitor) larvae was measured with a positive control or compound (0-10 μM) by the method used as in previous research. Overnight-cultured P. aeruginosa (OD 595 nm=1.0) was centrifuged for 10 minutes at 10,000 rpm. The supernatant was filtered through a 0.22-μm filter, and injected into the larvae using a syringe needle. The larvae were stored in a petri dish for 20 days at 25° C. The mortality of the larvae was measured every 5 days.

T1 sequence (P25084 whole entry): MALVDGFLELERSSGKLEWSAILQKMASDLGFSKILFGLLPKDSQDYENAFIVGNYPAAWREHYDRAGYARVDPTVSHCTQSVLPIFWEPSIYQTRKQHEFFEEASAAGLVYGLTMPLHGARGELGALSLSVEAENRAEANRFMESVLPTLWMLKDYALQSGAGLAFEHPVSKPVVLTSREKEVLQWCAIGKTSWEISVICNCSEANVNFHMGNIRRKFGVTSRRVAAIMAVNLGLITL

| Compound | LasR antagonistic activity (reported previously) [1] | activity at 10 µM [2] | activity at 100 µM [2] | downregulation of rhlA expression of biofilm cells [3] | biofilm appearance under flow condition vs control [4] | virulence factor (pyocyanin) production vs control of the rhlR variant [5] | reduction of the amount of carbohydrates in EPS ([6]; FIG. 8B) | reduction of the amount of proteins in EPS ([6]; FIG. 8C) | effect on cell growth (in words) ([2]; 100 PM [sic] (100 μM)) | larvae survived to the end of the incubation [7] |
| --- | --- | --- | --- | --- | --- | --- | --- | --- | --- | --- |
| CCCCC[C@H](O)CC(=O)CCc1ccc(O)c(OC)c1 [Compound 1c, (S)-6-gingerol, reference compound] | LasR antagonistic activity | 96% | 101% | 38% | thinner and more dispersed biofilm |  |  |  |  |  |
| CCCC(=O)C#Cc1ccc(F)c(F)c1 [Compound 30, 1-(3,4-Difluorophenyl)hex-1-yn-3-one] |  | 103% | 99% |  |  | no difference | 39% | 72% | no effect | approximately 80% |
